The values that follow come from patent publication EP1536235A2, “Method for detecting environmental pollution using 14-3-3 proteins as biomarkers” (MÜLLER, Werner E. G., priority 1998, dated 1999).

Molecules are shown by their SMILES.

Assay [1] deals with 14-3-3. Briefly: Northern blotting of 14-3-3 mRNA after exposure of the sponge. The format is in vivo, G. cydonium. The following applies: PCB 118 2 µg/g, 17 beta-Östradiol 20 ng/g, alone or in combination; 17 beta-Östradiol = 100% reference value; incubation 3 or 6 days; not detectable without agents. From the text: (§1) Für eine Quantifizierung der mRNA für 14-3-3 mittels Northern-Blotting Verfahren werden Gensonden hergestellt, die von den konservierten Anfangsbereichen [aa45-aa57] bis zu den konservierten Endbereichen [aa214-aa234] des 14-3-3 Proteins reichen (ABB. 2). Als Methodik wird die PCR-Klonierung eingesetzt. Die erhaltenen APPROX 500 bp langen Sonden eignen sich erfahrungsgemäß gut für Northern-Blotting-Untersuchungen.
(§2) Die quantitative Auswertung der Signale kann zum Beispiel mit Hilfe des Chemilumineszenz-Verfahrens (Stanley und Kricka, Bioluminescence and chemiluminescence: current status. John Wiley & Sons, New York, 1990) in Verbindung mit einem Phospholmager (z. B. GS-525 Molecular Imager der Firma Bio-Rad) erfolgen; Dinatrium 2-Chlor-5-(4-methoxyspiro 1,2-dioxetane-3,2'-(5'-chlor)-tricyclo[3.3.1.13,7]decan-4-yl)phenyl-phosphat (CDP) wird hierfür als Substrat angewandt.
Durchfiihrung: • (a) Exposition von G. cydonium gegenüber PCB 118: 1 ml PCB 118 (0.1 mg/ml in Kornöl) wurde in […] Schwammgewebe injiziert. Die Proben wurden in Seewasser für bis zu 6 Tage in 20 1 Aquarien bei 17°C unter kontinuierlicher Belüftung inkubiert; das Wasser wurde einmal am Tag 2 gewechselt. Aliquote Teile des Gewebes (ungefähr je 200 mg) wurden zum Zeitpunkt Null oder nach einer Inkubationszeit von 0.5, 1, 3, 5 und 6 Tagen entnommen. […]

A further assay has as its system 14-3-3 Protein. Briefly: ELISA quantification of 14-3-3 protein in liver after i.p. injection. The following applies: liver after 5 days, Kontrolle 0,12.
In assay [2] the test system is 14-3-3. Briefly: Keeping experiments with PCB 118: 14-3-3 expression by Northern and Western blotting. The format is in vivo, Geodia cydonium. The following applies: 2 µg PCB 118/g wet weight, 0,5 to 6 days; Northern (mRNA) and Western blotting (protein).
Excerpt: as §1, §2
Der Nachweis der Expression von 14-3-3 auf Protein-Ebene erfolgt mittels Antikörper. Entweder können kommerzielle (z. B. von der Firma Calbiochem/Oncogene) oder gegen das rekombinante Invertebraten-Protein 14-3-3 aus Geodia cydonium gezogene Antikörper eingesetzt werden. Zur Quantifizierung der 14-3-3 Proteine werden Western-Blots mit Extrakten des Bioindikators hergestellt. Die Signale können wieder unter Anwendung des Chemilumineszenz-Verfahrens quantifiziert werden. Die Gewebeextrakte können z. […]
For orientation: Immunoblotting shows a protein as a band on a membrane.

Where [3] appears, read: i.p. 0.03 mg PCB pro kg Limanda limanda.

Description for 14-3-3 Protein: Vorgegangen wurde hierbei nach den Instruktionen des Herstellers. Überschüssige Maleimidgruppen auf den Platten wurden durch einstündige Inkubation der Platten mit einer Cysteinlösung (10 µg/ml) blockiert.
Die Durchführung erfolgt in folgenden Schritten: • Variante 1 • 1a. Inkubation der Streptavidin-beschichteten Mikrotiterplatten mit dem Biotingekoppelten Peptid. • 2a. Zugabe von 100 µl Extrakt aus den untersuchten Tiergeweben in die Wells nach Bindung des Peptids über Biotin und Streptavidin. Oder: • 1a. Inkubation der Extrakte aus den untersuchten Tiergeweben mit dem Biotingekoppelten Peptid. • 2a. Zugabe von 100 µl der Inkubationsmischungen nach Bindung des Biotin-Peptids an 14-3-3 in die Wells. • 3. Waschen. • 4. Quantifizierung der Peptid-14-3-3 Komplexe über markierte Antikörper. Als Markierung kann zum Beispiel die alkalische Phosphatase verwendet werden; als Substrat zum Nachweis dient dann 5-Brom-4-Chlor-3-Indolylphosphat/Nitroblau-Tetrazolium. • 5. Detektion mittels eines ELISA-Platten-Readers. • Variante 2 • 1. Zugabe von 100 µl Extrakt in die Wells der Mikrotiterplatten mit dem gekoppelten Peptid und Inkubation. • 2. Waschen. • 3. Quantifizierung der Peptid-14-3-3 Komplexe über markierte Antikörper (siehe Variante 1). • 4. Detektion mittels eines ELISA-Platten-Readers.
Die in Tabelle 1 angegebenen Mengen an PCB 77, PCB 118 und PCB 153 wurden nach Auflösung in Kornöl in Klieschen (Limanda limanda) injiziert. […] Nach den angegebenen Zeiträumen wurde den Tieren die Leber entnommen und sofort eingefroren. Die Bestimmung des Gehalts an 14-3-3 in den Lebern erfolgte nach Homogenisation durch Mörsern der gefrorenen Gewebeproben in dem dreifachen Volumen an Phosphat-Puffer mit 1 mM EDTA und 1 mM Phenylmethylsulfonylfluorid.

Turning to `C[C@]12CC[C@@H]3c4ccc(O)cc4CC[C@H]3[C@@H]1CC[C@@H]2O` [17 beta-Östradiol], in the assay on 14-3-3 [1], the “Niveau der mRNA von 14-3-3” value is 100%. Turning to `[Cd]` [Cadmium], the results for the “14-3-3 Protein (OD-Einheit)” value in the assay on 14-3-3 Protein (Cadmium 0,01 mg/kg i.p.), in the assay with 14-3-3 Protein (Cadmium 0,1 mg/kg i.p.) and in the assay on 14-3-3 Protein (Cadmium 0,03 mg/kg i.p.) were 0,30 OD-Einheit, 0,98 OD-Einheit and 0,75 OD-Einheit, respectively. `Clc1cc(Cl)c(-c2cc(Cl)c(Cl)cc2Cl)cc1Cl` [PCB153, PCB 153]: the “14-3-3 Protein (OD-Einheit)” value with 14-3-3 Protein (setting [3]) is 0,81 OD-Einheit. On to `Clc1ccc(-c2ccc(Cl)c(Cl)c2)cc1Cl` [PCB77, PCB 77], for which the “14-3-3 Protein (OD-Einheit)” value with 14-3-3 Protein (setting [3]) is 0,97 OD-Einheit.

Take `Clc1ccc(-c2cc(Cl)c(Cl)cc2Cl)cc1Cl` [PCB 118]: the “Niveau der mRNA von 14-3-3” value in the assay with 14-3-3 [1] is recorded as 30%. Besides, in the assay on 14-3-3 [2], the “Expression des 14-3-3-Gens” value was “von nicht nachweisbar auf sehr hohe Werte induziert”. The “14-3-3 Protein (OD-Einheit)” value in the assay with 14-3-3 Protein (setting [3]) was 0,74 OD-Einheit.
